Test results reported in ChEMBL document CHEMBL5550093, “Design, synthesis and antitumor activity of 2-substituted quinazoline-4-amine derivatives” (Bioorg Med Chem, 2024).
Calls of active or inactive are those of the source. The rule behind the calls is not given here.

What was measured:
[1] = system: PC-3; assay: Antiproliferative activity against human PC-3 cells at 5 uM incubated for 48 hrs by MTT assay relative to control; type: functional
[2] = system: A549; assay: Antiproliferative activity against human A549 cells at 5 uM incubated for 48 hrs by MTT assay relative to control; type: functional
[3] = system: HeLa; assay: Antiproliferative activity against human HeLa cells at 5 uM incubated for 48 hrs by MTT assay relative to control; type: functional
[4] = Antiproliferative activity against HEK293T cells at 5 uM incubated for 48 hrs by MTT assay relative to control; type: toxicity, cell-based, HEK-293T; conditions: human
[5] = system: K562; assay: Antiproliferative activity against human K562 cells at 5 uM incubated for 48 hrs by MTT assay relative to control; type: functional
[6] = system: HeLa; assay: Antiproliferative activity against human HeLa cells incubated for 48 hrs by MTT assay; type: functional, cell-based
[7] = system: PC-3; assay: Antiproliferative activity against human PC-3 cells incubated for 48 hrs by MTT assay; type: functional, cell-based; conditions: for IC50: PC-3, 48 h; for IC20: PC-3, time 48 hrs
[8] = system: PC-3; assay: Antiproliferative activity against human PC-3 overexpressing WRN cells incubated for 48 hrs by MTT assay; type: functional
[9] = system: PC-3; assay: Inhibition of cell survival in human PC-3 cells at 1000 nM pretreated for 48 hrs followed by fresh media replacement without compound measured after 2 weeks by colony formation assay; type: functional, cell-based
[10] = Antiproliferative activity against HEK293T cells incubated for 48 hrs by MTT assay; type: toxicity, cell-based, HEK-293T; conditions: human
[11] = system: K562; assay: Antiproliferative activity against human K562 cells incubated for 48 hrs by MTT assay; type: functional, cell-based; conditions: K562, 48 h
[12] = system: A549; assay: Antiproliferative activity against human A549 cells incubated for 48 hrs by MTT assay; type: functional, cell-based; conditions: A549, 48 h

SMILES | inhibition at 5 µM [1] [%] | inhibition at 5 µM [2] [%] | inhibition at 5 µM [3] [%] | inhibition at 48 h, 5 µM [4] [%] | inhibition at 5 µM [5] [%] | IC50 [6] [µM] | IC50 [7] [µM] | IC20 [7] [µM] | IC20 [8] [µM] | inhibition [9] | IC50 at 48 h [10] [µM] | IC50 [11] [µM] | IC50 [12] [µM]
COc1ccc(Nc2nc(C(=O)c3ccccc3)nc3ccc(F)cc23)cc1 | 3.4 | 2.9 | 2 | 2.4 | 0.5 | – | – | – | – | – | – | – | –
COc1ccc(N(C)c2nc([C@@H](N)C(C)C)nc3ccccc23)cc1 | 51.9 | 72.6 | 33.6 | 59.2 | 85.2 | > 10 | 8 | 7.61 | 1.11 | Active | 7.9 | 8 | > 10
COc1ccc(Nc2nc([C@@H](N)C(C)C)nc3ccccc23)cc1 | -4.8 | 3.4 | 9.3 | 8.4 | 0.8 | – | – | – | – | – | – | – | –
COC(=O)c1ccc(Nc2nc(C(=O)c3cccc(OC)c3)nc3ccccc23)cc1OC | 48.3 | 40.1 | 37.7 | 14.5 | 9.5 | – | – | – | – | – | – | – | –
COC(=O)c1ccc(Nc2nc(C(=O)c3ccc(F)cc3)nc3ccccc23)cc1OC | -5.7 | 8.5 | 8.2 | 4.6 | 8.5 | – | – | – | – | – | – | – | –
Cc1ccc(Nc2nc(C(=O)c3ccc(F)cc3)nc3ccccc23)c(C(=O)O)c1 | -4.2 | 29.9 | 42.7 | 20.6 | 6.5 | – | – | – | – | – | – | – | –
COc1cc(N(C)c2nc(C(=O)c3ccc(F)cc3)nc3ccccc23)ccc1C(=O)O | -8.9 | 5.1 | 12.3 | 5.3 | 6.4 | – | – | – | – | – | – | – | –
O=C(c1ccccc1)c1nc(Nc2ccc(OC(F)(F)F)cc2)c2cc(F)ccc2n1 | 47.6 | 42.2 | 27.8 | 23 | 19.3 | – | – | – | – | – | – | – | –
CC(C)[C@H](N)c1nc(Nc2ccc(N3CCOCC3)cc2)c2ccccc2n1 | 2.1 | -0.7 | 6.5 | 1.2 | 8.2 | – | – | – | – | – | – | – | –
O=C(c1ccccc1)c1nc(Nc2ccc(N3CCOCC3)cc2)c2cc(F)ccc2n1 | 3.1 | 39.3 | 31.1 | 29.7 | 28.1 | – | – | – | – | – | – | – | –
CCOC(=O)c1[nH]c(-c2ccc(Nc3nc(C(=O)c4ccccc4)nc4ccc(F)cc34)cc2)nc1C | 44.5 | 40.6 | 34.9 | 58.3 | 55.4 | > 10 | 5.7 | 7.51 | 6.6 | – | 6.2 | 8 | > 10
CCOC(=O)c1c(C)nc(-c2ccc(N(C)c3nc(C(=O)c4ccccc4)nc4ccc(F)cc34)cc2)n1C | 1 | 1.8 | 4 | 0.3 | 30.1 | – | – | – | – | – | – | – | –
COc1cccc(C(=O)c2nc(N(C)c3ccc(OC)c(OC)c3)c3ccccc3n2)c1 | 25.3 | 45.4 | 47.1 | 46.3 | 38.8 | – | – | – | – | – | – | – | –
CC(C)[C@H](N)c1nc(Nc2ccc(OC(F)(F)F)cc2)c2ccccc2n1 | 13.3 | 11.4 | 2.6 | 4.4 | 7.2 | – | – | – | – | – | – | – | –
CN(c1ccc(N2CCOCC2)cc1)c1nc(C(=O)c2ccccc2)nc2ccc(F)cc12 | 35.4 | 3.3 | 40.3 | 34.5 | 35.4 | – | – | – | – | – | – | – | –
COc1cc(N2CCNCC2)ccc1N(C)c1nc(C(=O)c2ccc(F)cc2)nc2ccccc12 | 17.3 | 11.9 | 5.2 | 3.2 | 3.3 | – | – | – | – | – | – | – | –
COc1cccc(C(=O)c2nc(Nc3ccc(OC)c(OC)c3)c3ccccc3n2)c1 | -10.2 | 47.4 | 41.1 | 5.5 | 8.7 | – | – | – | – | – | – | – | –

SMILES | inhibition at 5 µM [1] [%] | inhibition at 5 µM [2] [%] | inhibition at 5 µM [3] [%] | inhibition at 48 h, 5 µM [4] [%] | inhibition at 5 µM [5] [%] | IC50 [6] [µM] | IC50 [7] [µM] | IC20 [7] [µM] | IC20 [8] [µM] | inhibition [9] | IC50 at 48 h [10] [µM] | IC50 [11] [µM] | IC50 [12] [µM]
COc1cccc(C(F)(F)c2nc(N(C)c3ccc(OC)c(OC)c3)c3ccccc3n2)c1 | 62.7 | 53.2 | 51.2 | 63.6 | 65.5 | > 10 | > 10 | 0.981 | 0.123 | Active | 1.1 | 0.05 | > 10
O=C(c1ccc(F)cc1)c1nc(Nc2ccc(N3CCNCC3)c(F)c2)c2ccccc2n1 | -9.6 | 4.1 | 11.3 | 9.5 | -10.7 | – | – | – | – | – | – | – | –
COC(=O)c1ccc(Nc2nc(C(=O)c3ccc(F)cc3)nc3ccccc23)cc1 | 19 | 35.7 | 37.8 | 18.9 | 6.8 | – | – | – | – | – | – | – | –
COc1ccc(N(C)c2nc(C(=O)c3cccc(OC)c3)nc3ccccc23)cc1 | 58.1 | 52 | 51 | 59.6 | 61.5 | > 10 | 6.6 | 0.975 | 1.07 | – | 6.4 | 9.3 | > 10
C=CC(=O)Nc1cccc(Nc2nc(C(=O)c3ccccc3)nc3ccc(F)cc23)c1 | 9.6 | 7.9 | 7 | 4.8 | 8.9 | – | – | – | – | – | – | – | –
COc1cc(N2CCNCC2)ccc1Nc1nc(C(=O)c2ccc(F)cc2)nc2ccccc12 | 9 | -0.5 | 1.7 | 5.8 | -6.6 | – | – | – | – | – | – | – | –
COC(=O)c1ccc(Nc2nc(C(=O)c3ccccc3)nc3ccc(F)cc23)cc1 | 29.3 | 17.7 | 0.8 | 11.1 | 19.5 | – | – | – | – | – | – | – | –
COc1ccc(Nc2nc(C(=O)c3cccc(OC)c3)nc3ccccc23)cc1 | 46.5 | 44.3 | 40.1 | 4.7 | 25.2 | – | – | – | – | – | – | – | –
COC(=O)c1ccc(N(C)c2nc(C(=O)c3ccc(F)cc3)nc3ccccc23)cc1OC | 43.6 | 21.9 | 31.2 | 38 | 40.2 | – | – | – | – | – | – | – | –
COc1ccc(N(C)c2nc(C(F)(F)c3cccc(OC)c3)nc3ccccc23)cc1 | 57.6 | 52.7 | 47.8 | 56.6 | 61.3 | > 10 | 5.6 | 0.25 | 0.144 | – | 2.1 | 0.3 | > 10
CC(C)(CN1C(=O)C(Cl)=C(Cl)C1=O)CN1C(=O)C(Cl)=C(Cl)C1=O | 51.1 | 7.3 | 69.1 | 71 | 35 | 2.7 | 6.8 | – | – | – | 3.1 | 1.8 | 3.4
COc1cccc2c1C(=O)c1c(O)c3c(c(O)c1C2=O)C[C@@](O)(C(=O)CO)C[C@@H]3O[C@H]1C[C@H](N)[C@H](O)[C@H](C)O1 [DOXORUBICIN] | 80.1 | 30.1 | 71.7 | 81.1 | 61 | – | – | – | – | – | 2.4 | 2.3 | 4.4
COC(=O)c1ccc(N(C)c2nc(C(=O)c3ccccc3)nc3ccc(F)cc23)cc1 | 39 | 46.1 | 16 | 37.6 | 25.9 | – | – | – | – | – | – | – | –
CC(C)[C@H](N)c1nc(N(C)c2ccc(OC(F)(F)F)cc2)c2ccccc2n1 | 7 | 56.2 | 11.3 | 25.5 | 81.4 | – | – | – | – | – | – | – | –
COc1ccc(N(C)c2nc(C(=O)c3ccccc3)nc3ccc(F)cc23)cc1 | 40.9 | 25 | 37.8 | 39.3 | 24.1 | – | – | – | – | – | – | – | –
CN(c1ccc(OC(F)(F)F)cc1)c1nc(C(=O)c2ccccc2)nc2ccc(F)cc12 | 10.4 | 18.4 | -3.1 | 1.3 | -2.2 | – | – | – | – | – | – | – | –
